From publication PMC12656239, “Aryl Hydrocarbon Receptor-Mediated Disruption of Intestinal Epithelial Barrier Integrity by Dioxin Isomers” (Toxics, 2025) come the findings set out here.

The target in this assay is aryl hydrocarbon receptor (AhR) (Homo sapiens, UniProt P35869). Nature of the assay: EROD induction in Caco-2 cells (endogenous AhR), abolished by AhR antagonist. It counts as cell-based.

A word on the EC50: it is the concentration needed to bring the measured effect to its halfway point. In turn, `Clc1cc2c(cc1Cl)Oc1cc(Cl)c(Cl)cc1O2` [2,3,7,8-TCDD, 2,3,7,8-tetrachlorodibenzo-p-dioxin] showed a concentration giving a half-maximal response (EC50) of 0.102 nM.
